The test system of series [1] is NB2-11 cells. Kind of series: NB2-11 rat lymphoma cell proliferation assay. The note with it: in vitro; based on determined protein content; unmodified hGH = 100% bioactivity; preliminary. On the procedure: The biological activity of hGH and the conjugates described in Table 1 was assessed in vitro using an NB2-11 rat lymphoma cell proliferation assay. Briefly, NB2-11 cells derived from a rat lymphoma were incubated with hGH, which leads to binding of the hGH molecule to its receptor on the cell surface. Receptor binding induces the signal transduction cascade, which results in proliferation of the cells. Assay results were based on determined protein content, and a 100% bioactivity of unmodified hGH.

Series [2] deals with hypophysectomized rat. Description: in vivo bioassay, weight gain in hypophysectomized rat (USP monograph for Somatotropin). As to conditions: for increase of weight (day 8): single high dose of 110 μg on day 1, day 8. As for the experimental part:
Conjugates 1M and 1D were further evaluated in a preliminary in vivo bioassay (hypophysectomized rat, USP monograph for Somatotropin®). Six groups of each of five animals received either hGH, 1M, 1D, or placebo in different dosing regimes. Weight gain as a pharmacodynamic output was measured on day 1, 3, 6, and 8.
The results of the experiment are summarized in FIG. 4 (weight gain following day 8) and FIG. 5 (weight gain over time course of study). […] Daily dosing of 5 μg of the hGH standard induced an overall weight gain of 4% on day 8, whereas the single high dose of 110 μg of 1M and ID produced an increase of weight of 7% and 9% respectively (FIG. 4).

The values below come from US9399070B2, “Compositions comprising a polymeric reagent and a pharmacologically active agent” (Nektar Therapeutics, priority 2003, dated 2016).

With di(mPEG-2-ButyrALD-40k) hGH [Sample 4D], the “Activity, %” value in series [1] is recorded as 0.2%. With di(mPEG-2-NHS-40k) hGH [Sample 1D], the “Activity, %” value in series [1] was found to be 0.4%. Besides, in series [2] (1D bolus group, single dose 110 μg, five animals per group), the “animal death in study group” value was “death of one animal”. Also, in series [2], the “increase of weight (day 8)” value is given as 9%. Consider “hGH: Native, recombinant human growth hormone, unmodified”, for which the “overall weight gain on day 8” value in series [2] (daily dosing of 5 μg (cumulative 35 μg), day 8) came out at 4%. The “weight gain during the eight days” value in series [2] (single high dose (110 μg, day 1)) is “no or moderate weight gain”. For “mono(mPEG-2-ButyrALD-40k) hGH [Sample 4M]”, the “Activity, %” value in series [1] is on record as 2.5%.

On to mono(mPEG-2-NHS-40k) hGH [Sample 1M], for which, in series [2], the “increase of weight (day 8)” value is reported as 7%.
